In PubChem BioAssay AID651973 (The Scripps Research Institute Molecular Screening Center, 2013):
Activity calls are given as the source filed them. No rule for the calls is given here.

Each molecule was assayed on Cell-based VP16 transactivation luciferase reporter, luminescence (assay: compounds lowering VP16-driven luciferase output – cell-based, luminescence, counter-screen for LRH-1 inverse agonist project, dose response (AID 651973)).

SMILES | IC50
N#CCSc1ccccc1NC(=O)CN1C(=O)C2CC=CCC2C1=O (stereo unspecified) | > 35.9 µM (inactive)
O=C(CSc1nc(=O)n2cc(Cl)ccc2n1)Nc1ccc2c(c1)OCCO2 | > 35.9 µM (inactive)
Cc1cc(C)c2sc(NC(=O)c3ccc([N+](=O)[O-])o3)nc2c1 | > 35.8 µM (inactive)
O=C(CN1C(=O)NC2(CCCCC2)C1=O)NCCc1c[nH]c2ccccc12 | > 35.9 µM (inactive)
Cc1ccccc1OCC(=O)N/N=C/c1ccc([N+](=O)[O-])o1 | 29.8 µM (inactive)
O=[N+]([O-])c1ccc(N2CCN(S(=O)(=O)c3ccccc3)CC2)cc1NCc1cccnc1 | > 35.9 µM (inactive)
CCc1cc(=O)oc2c(C)c(OCC(=O)NCCCN3CCCC3=O)ccc12 | > 35.9 µM (inactive)
O=C(Nc1ccccc1C(=O)Nc1nccs1)c1ccccc1 | 14.7 µM (inactive)
COc1cc(OC)cc(C(=O)N[C@H](C(=O)OCC(=O)Nc2ccc3c(c2)OCO3)C(C)C)c1 | > 35.9 µM (inactive)
CCCN(CC(=O)Nc1ccc(C(N)=O)cc1)CC(=O)Nc1ccccc1C | > 35.9 µM (inactive)
O=C(COc1ccc2c3c(c(=O)oc2c1)CCCC3)NCCCN1CCOCC1 | > 35.9 µM (inactive)
Cc1ccc(NC(=O)CN2C(=O)NC(C)(CC(C)C)C2=O)c(Br)c1 (stereo unspecified) | > 35.9 µM (inactive)
CCOc1ccc(NC(=O)CSc2nncc(=O)n2N)cc1 | > 35.9 µM (inactive)
CCc1cc(=O)oc2c(C)c(OCC(=O)NCCCN3CCOCC3)ccc12 | > 35.9 µM (inactive)
CCCOc1ccc(NC(=O)CC2C(=O)N(C)C(=S)N2Cc2ccc3c(c2)OCO3)cc1 (stereo unspecified) | 8.7 µM
O=C(COc1ccc(S(=O)(=O)N2CCCC2)cc1Cl)Nc1ccc2c(c1)OCO2 | > 35.9 µM (inactive)
COc1cccc(-c2cnc3c(NC(C)=O)cc(-c4ccc(S(C)(=O)=O)cc4)cn23)c1 | > 35.9 µM (inactive)
Cc1ccc(NC(=O)CSc2sc3c(O)cc(=O)[nH]c3c2C#N)c(F)c1 | > 35.9 µM (inactive)
COc1cc(NC(=O)Cn2ccsc2=N)c(C)cc1[N+](=O)[O-] | > 35.9 µM (inactive)
CCc1cc(=O)oc2c(C)c(OCC(=O)NC3CC(C)(C)NC(C)(C)C3)ccc12 | > 35.9 µM (inactive)
COc1ccc(NC(=O)CSc2nc(N)c(-c3ccccc3)c(=O)[nH]2)cc1 | > 35.9 µM (inactive)
O=C(Nc1nc2c(Cl)cccc2s1)c1ccc([N+](=O)[O-])o1 | > 35.9 µM (inactive)

SMILES | IC50
CN1CCN(c2ccc(S(=O)(=O)N3CCCCC3)cc2NC(=O)COc2ccc([N+](=O)[O-])cc2)CC1 | > 35.9 µM (inactive)
COc1ccc(CCNC(=O)CSc2nn3c(=O)c(C)nnc3s2)cc1OC | > 35.9 µM (inactive)
COc1cccc(C(=O)COc2cccc(NC(=O)c3cccc([N+](=O)[O-])c3)c2)c1 | 8.46 µM
O=C(COC(=O)CCN1C(=O)C2CC=CCC2C1=O)NCCc1ccc(F)cc1 (stereo unspecified) | > 35.9 µM (inactive)
Cc1c(Cl)cccc1NC(=O)CS(=O)(=O)c1ccccc1 | > 35.8 µM (inactive)
COc1ccc(NC(=O)CS(=O)(=O)c2ccc(C)cc2)c(OC)c1 | > 35.9 µM (inactive)
COc1ccc(CCNC(=O)CN2C(=O)NC3(CCCCC3)C2=O)cc1 | > 35.9 µM (inactive)
COc1cc(C(=O)Nc2ccccc2C2COC(=O)C2=N)cc(OC)c1OC (stereo unspecified) | > 35.9 µM (inactive)
O=C(COC(=O)c1ccc(Br)cc1)Nc1ccccc1Br | > 35.9 µM (inactive)
COC(=O)c1ccc(COc2ccc(/C=N/NC(N)=S)cc2)o1 | > 35.9 µM (inactive)
O=C(COC(=O)c1ccc[n+]([O-])c1)Nc1ccc([N+](=O)[O-])cc1Cl | > 35.9 µM (inactive)
CC(=O)Nc1ccc(NC(=O)CSc2ccc(-c3ccc(-n4ccnc4)cc3)nn2)cc1 | > 35.9 µM (inactive)
COc1ccccc1NC(=O)CN1CCN(CC(=O)Nc2ccc(S(N)(=O)=O)cc2)CC1 | 20.4 µM (inactive)
N#Cc1cc([N+](=O)[O-])ccc1NC(=O)COC(=O)C1CCC(=O)N1 (stereo unspecified) | > 35.9 µM (inactive)
CCOc1ccc(Cc2nnc(SCC(=O)Nc3ccc(C(C)=O)cc3)[nH]c2=O)cc1 | > 35.9 µM (inactive)
O=[N+]([O-])c1cc(F)c(N2CCCCCC2)cc1N1CCNCC1 | 19.3 µM (inactive)
COc1ccc(CCNC(=O)COC(=O)c2cccn2C)cc1 | > 35.9 µM (inactive)
CCn1cc(Br)c(C(=O)Nc2ccccc2C(=O)OC)n1 | > 35.9 µM (inactive)
CCCNC(=O)c1sc2c(c1C(=O)Nc1ccccn1)CCCC2 | > 35.9 µM (inactive)
Cc1cc(=O)oc2c(C)c(OCC(=O)NC3CC(C)(C)NC(C)(C)C3)ccc12 | > 35.9 µM (inactive)
COc1ccc(CCn2c(C)cc(C(=O)COC(=O)c3ccc(O)cc3O)c2C)cc1 | > 35.9 µM (inactive)
CCn1c(SCC(=O)Nc2ccc(Cl)cc2)nnc1C1CC1 | > 35.9 µM (inactive)

SMILES | IC50
CC(=O)Nc1ccc(NC(=O)COC(=O)Cc2c[nH]c3ccccc23)cc1 | > 35.9 µM (inactive)
COCCNc1ccc([N+](=O)[O-])cc1C(=O)NC1CCCc2ccccc21 (stereo unspecified) | > 35.9 µM (inactive)
CC1CCCN(c2cc(N(C)CCO)c([N+](=O)[O-])c3nonc23)C1 (stereo unspecified) | > 35.9 µM (inactive)
Cc1ccc(NC(=O)CSc2nc3[nH]c(=O)cc(O)c3s2)c(Br)c1 | > 35.9 µM (inactive)
COc1ccc(OCCNC(=O)C2(C)CCN2Cc2ccc3ccccc3c2)cc1 (stereo unspecified) | 23.8 µM (inactive)
COc1ccc(S(=O)(=O)N2CCN(CC(=O)Nc3ccc(C)c(F)c3)CC2)cc1 | > 35.9 µM (inactive)
CCOc1ccc(NC(=O)COC(=O)CC2CCCCC2)cc1 | > 35.9 µM (inactive)
CC1CCC2(CC1)NC(=O)N(CC(=O)Nc1ccc3c(c1)OCCCO3)C2=O (stereo unspecified) | > 35.9 µM (inactive)
CC(=O)Nc1cc(-c2ccc(F)cc2)cn2c(-c3ccc(S(C)(=O)=O)cc3)cnc12 | > 35.9 µM (inactive)
CN(C)S(=O)(=O)c1cccc(C(=O)OCC(=O)Nc2ccc3c(c2)OCCO3)c1 | > 35.9 µM (inactive)
COc1ccc(NC(=O)CSc2nnc3ccc(-c4cccnc4)nn23)cc1OC | > 35.9 µM (inactive)
Cc1cc(OCC(=O)Nc2nccs2)c2c(C)cc(=O)oc2c1 | > 35.9 µM (inactive)
CC(Oc1ccc(S(=O)(=O)N2CCCC2)cc1[N+](=O)[O-])C(=O)NC(C)c1ccccc1 (stereo unspecified) | 20.1 µM (inactive)
COC(=O)c1ccc(NC(=O)CSc2nc3ncccc3[nH]2)cc1 | > 35.9 µM (inactive)
Cc1cc(C)c2nc(NC(=O)c3ccc([N+](=O)[O-])o3)sc2c1 | > 35.9 µM (inactive)
CC1(C(=O)NCc2ccc3c(c2)OCO3)CCN1C(=O)Cc1ccc(Cl)cc1Cl (stereo unspecified) | > 35.9 µM (inactive)
O=C(Nc1ccc(Br)cn1)c1ccc([N+](=O)[O-])o1 | > 35.9 µM (inactive)
CCCc1cc(=O)oc2cc(OCC(=O)NCCc3ccc(S(N)(=O)=O)cc3)ccc12 | > 35.9 µM (inactive)
O=C(CSc1nnc(CNC(=O)c2c(F)cccc2F)o1)Nc1ccc2c(c1)OCCO2 | > 35.9 µM (inactive)
Cc1onc(NC(=O)c2ccc([N+](=O)[O-])o2)c1Br | > 35.9 µM (inactive)
COc1ccccc1NC(=O)c1ccc(NC(=O)CSc2nnnn2C)cc1 | > 35.9 µM (inactive)
O=C(COc1ccc2c3c(c(=O)oc2c1)CCC3)NCc1ccncc1 | > 35.9 µM (inactive)
